Laboratory results published in US20250090554A1, “A METHOD OF TREATING DEPRESSION BY IMMUNE MODULATION” (MYND LIFE SCIENCES INC., priority 2021, published 2025).

Experiments:
ABCF1 [1] = assay: ABCF1 real time RT-PCR in RAW macrophage cell line treated with drugs; format: cell-based, murine
Protocol: (§1) FIG. 1 illustrates that Escitalopram induces ABCF1 in a Macrophage cell line: RAW macrophages were plated at 1×10^5 cells/well and cultured for 2 days. The cells were incubated with 0.3 mM Escitalopram for 1 hour, and then harvested for total RNA, which was extracted for real time RT-PCR specific for ABCF1 and IL-4. CT values were normalized with CT value for the housekeeping gene from the DMSO control. The difference in the expression after drug treatment is consistent with polarization towards an M2-like phenotype (data were consistent in 3 separate experiments).
FIG. 2 illustrates the effect of psylocibin, psylocin and their analogs on ABCF1 transcription in a macrophage cell line. Briefly, the Macrophage cell line RAW264.7 (ATCC) were grown to 80% confluency in growth media (DMEM+10% FBS+glutamine). Dilutions of psylocibin, psylocin and their analogs were made at desired final concentrations for a Dose response experiment. The concentrations' used for this experiment are: 10 nM, 100 nM, 500 nM for Psilocin, Psylocibin, 4-Acetoxy-N, N-dimthyltryptamine, O-Acetyl Psilocin Fumerate, and 4-acetoxyindole. The cells were incubated for 2 hours and then harvested for total RNA, which was extracted for real time RT-PCR specific for ABCF1. Untreated cells were used as negative control and Escitalopram at 0.3 mM was used as a positive control to activate ABCF1 expression for all the experiments. ES=escitalopram; PSYB=Psylocibin; PSIC=Psilocin; DMT=4-Acetoxy-N, N-dimthyltryptamine; APF=O-Acetyl Psilocin Fumerate, and AOI=4-acetoxyindole.
• 1. Macrophage cell line RAW264.7 (ATCC) were grown to 80% confluency in growth media (DMEM+10% FBS+glutamine). • 2. Dilutions of the drugs were made at desired final concentrations for a Dose response experiment. The concentrations' used for this experiment are: 10 nM, 100 nM, 500 nM for Psilocin, Psylocibin, 4-Acetoxy-N, N-dimthyltryptamine, O-Acetyl Psilocin Fumerate, and 4-acetoxyindole. • 3. A time course response experiment was done for the above stated drugs at concentrations mentioned above (10 nM, 100 nM, 500 nM). The time points chosen were 0, 30 mins, 2 hours and 24 hour. • 4. Untreated cells were used as negative control and Escitalopram at 0.3 mM was used as a positive control to activate ABCF1 expression for all the experiments. Analysis by qPCR:
• 1. Post treatment with drugs at different time points, the reaction was stopped by removing the media with the drug. Cells were then collected and RNA was isolated from these. • 2. After checking the quality of the RNA, cDNA was generated and qPCR was run with ABCF1 primers as the target gene and GAPDH as the house keeping gene. • 3. Normalized against the expression level of GAPDH, the fold change expression level of ABCF1 was calculated and tabulated for all treatment conditions.

ABCF1 [2] = assay: ABCF1 expression in bone marrow after in vivo drug treatment of mice; parameters: species or system mice (C57Bl/6); conditions: for ABCF1 expression levels increased in bone marrow (fold): 30 mins treatment in vivo
Protocol: • Species strain: C57Bl/6 • Tissues collected: Brain, Bone marrow, PBMC • Drug treatment: • a. 30 minutes Drug treatment (PBS control, Escitalopram 50 mg/kg, Psilocybin 25 mg/kg) • b. 30 minutes Drug treatment after 30 minutes LPS stimulation (PBS control, Escitalopram 50 mg/kg, O-Acetyl Psilocin Fumarate (APF) 25 mg/kg, 4-AcetoxyIndole (AOI) 2.5 mg/kg, 4-AcO-DET (AODET) 25 mg/kg) • Method: • Weighed and injected the drug into the mice by Intraperitoneal injection. • Euthanized the mice 30 minutes after injections with isoflurane and CO2 • Post cervical Dislocation performed cardiac puncture to collect the whole blood from mice. • Opened the cephalic bone to collect the whole brain. • Removed the skin and muscles, took out both femur and tibia for bone marrow collection. • Tissue process procedures: • Brain—flash frozen and stored hemisphere in-80 for further molecular experiments and sent another part with buffer for sequencing. The frozen Brains were Dounce-homogenized. […]

ABCF1 [3] = conditions: peripheral blood mononuclear cells of patients; cited from earlier work
IL-4 = IL-4 real time RT-PCR in RAW macrophages treated with Escitalopram; format: cell-based, murine; conditions: FIG. 1: 0.3 mM Escitalopram for 1 hour
Protocol: as §1

ABCF1 [4] = assay: ABCF1 expression in whole brain after in vivo drug treatment of mice; parameters: species or system mice (C57Bl/6); conditions: Escitalopram 50 mg/kg, psilocybin 25 mg/kg, 30 minutes

SMILES: CCCCCc1cc(O)c(C/C=C(\C)CCC=C(C)C)c(O)c1 [Cannabigerol]
- ABCF1 expression levels increased (fold) (ABCF1 [1]; RAW264.7 cells, post 2 hr treatment with 100 nM): 8 folds

SMILES: CN(C)CCc1c[nH]c2cccc(OP(=O)(O)O)c12 [Psilocybin, [3-(2-Dimethylaminoethyl)-1H-indol-4-yl] dihydrogen phosphate]
- ABCF1 expression levels increased in bone marrow (fold) (ABCF1 [2]): 2 folds

SMILES: CN(C)CCC[C@@]1(c2ccc(F)cc2)OCc2cc(C#N)ccc21 [Escitalopram]
- ABCF1 expression in the bone marrow (ABCF1 [2]; Escitalopram 50 mg/kg, psilocybin 25 mg/kg, mice, 30 minutes): induces ABCF1 expression
- ABCF1 expression levels increased in bone marrow (fold) (ABCF1 [2]): 6 folds
- ABCF1 transcription in PBMCs of patients responding to treatment (ABCF1 [3]): increased the transcription
- IL-4 induction (fold) in the macrophage cell line (IL-4): approximately 5 fold
- ABCF1 expression in the whole brain (ABCF1 [4]): induce ABCF1 expression
- ABCF1 expression in RAW macrophages cell cultures (ABCF1 [1]; Escitalopram 0.6 nM, Psilocybin 500 nM, 2 hrs, vs untreated control): induces ABCF1 expression
- ABCF1 induction in a macrophage cell line (ABCF1 [1]; RAW macrophages, 0.3 mM Escitalopram, 1 hour): induces ABCF1
- ABCF1 induction (fold) in the macrophage cell line (ABCF1 [1]; RAW macrophages, FIG. 1: 0.3 mM Escitalopram for 1 hour): approximately 20 fold
